According to patent US12071624B2, “Antisense oligonucleotide targeting ARL4C molecule, and nucleic acid drug using antisense oligonucleotide” (OSAKA UNIVERSITY, priority 2018, dated 2024):

What was measured:
HLE cells = test: Cell proliferation assay (CyQUANT NF) in HLE cells; type: cell-based; details: HLE cells transfected with siRNA at 20 nM
Procedure: HLE cells, HCT116 cells, and A549 cells were transfected with 25 to 50 nM ASO and 10 to 20 nM siRNA using Lipofectamine 3000 (Invitrogen, Carlsbad, CA, USA) or RNAiMAX (Invitrogen). Transfected cells were used in the experiments 36 to 48 hours after the end of the transfection.
The cell proliferation assays were performed using the CyQUANT NF Cell Proliferation Assay Kits (Thermo Fisher Scientific), in the way recommended by the manufacturer.
HLE cells were transfected with control ASO, ASO-1316 and ASO-3223 at 25 nM and a proliferation assay was performed; the results of the assay are shown in (e) of FIG. 4.
(§1) HLE cells were transfected with control siRNA and PIK3CD siRNA (siRNA against PIK3CD) at 20 nM, and a proliferation assay was performed; the results are shown in (e) of FIG. 5. In addition, an anti-phosphorylated AKT antibody and an anti-AKT antibody as probes were caused to act on cell lysates of HLE cells transfected with control siRNA and PIK3CD siRNA; the results are shown in FIG. 5 (f). HLE cells were transfected with control siRNA and PIK3CD siRNA (siRNA against PIK3CD) at 20 nM and the PIK3CD mRNA amount was measured by real-time PCR; the results are shown in (c) of FIG. 7.

AKT = test: Anti-phosphorylated AKT / anti-AKT probing of HLE cell lysates; type: cell-based; details: HLE cells transfected with PIK3CD siRNA
From the text: Anti-ARL4C and anti-PIK3CD antibodies were purchased from Abcam (Cambridge, UK) and Santa Cruz Biotechnology (Santa Cruz, CA, USA), respectively. Anti-phosphorylated AKT (S473) antibody, anti-AKT antibody, anti-Ki-67 antibody, and anti-YAP/TAZ were purchased from Cell Signaling Technology (Beverly, MA, USA). PD184161 (MEK1/2 inhibitor) and VivoGlo luciferin were purchased from Sigma-Aldrich (Steinheim, Germany) and Promega (Madison, WI, USA), respectively.
as §1

Substance: PIK3CD siRNA: siRNA against PIK3CD, Table 3, SEQ ID NO: 102 and 103 (chain 1 GCGAATACTCTGCCATTAT; chain 2 GCCAACTAACTCTGCAGAT; two separate siRNAs, only sense strands listed, further chemistry not given here) [reference compound]
- cell proliferation (HLE cells): suppressed cell proliferation
- AKT activity (pAKT S473) (AKT): reduced AKT activity
